Numbered stars: 1 amine (or outer) side, 2 acyl side, 3 side chain; on linkers, the order of the positions; unused ones are H or OH. Bridge positions count the residues as written; N and C are the ends. Square brackets hold non-standard residues; d marks the D form. Peptide text beside a SMILES is read from it. * marks the point of attachment. Pyrazinoyl(5-oxo-4H) = O=C(c1c[nH]c(=O)cn1)*; 1,2,3Thiadiazole5CO(4-Me) = Cc1nnsc1C(=O)*; Nicotinoyl(6-OMe) = COc1ccc(C(=O)*)cn1; 2Thenoyl(5-Cl) = O=C(c1ccc(Cl)s1)*; Phenoxyacetyl = O=C(COc1ccccc1)*; Cysteamide = C(CS[*:3])N[*:1]; X3 = O=C(Cc1c[nH]c2ccccc12)*; 2Furoyl = O=C(c1ccco1)*; Mpa = O=C(O)CCS
Target: T1, thrombin (Homo sapiens, UniProt P00734)
T1 construct: consists of two polypeptide chains of 36 (light chain) and 259 amino acid
Test: Thrombin inhibition screen of crude macrocycle reactions (residual thrombin activity, fluorogenic substrate Z-Gly-Gly-Arg-AMC)
Assay type: biochemical
Details: 10 µM macrocycle concentration; crude reactions, Library 1a-l; scaffold AA1-AA2-AA3 combined with 1-16 or '-'
Outline: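 Residual activity was measured as the AMC release rate after adding 50 μM Z-Gly-Gly-Arg-AMC. This followed a 10-min room-temperature preincubation of 2 nM thrombin with 10 μM single macrocycles in pH 7.4 Tris buffer (0.6% DMSO). Percent inhibition was taken against the mean slope of DMSO controls.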

percent residual thrombin activity	Compound
105.629%	O=C1CCSSCCNC(=O)[C@H](CCCNC(=O)c2ccccc2)NC(=O)c2ccc(cc2)CNC(=O)[C@H](CO)N1 [S-B3-D2/1]
113.923%	CC(C)CC(=O)NCCC[C@@H]1NC(=O)c2ccc(cc2)CNC(=O)[C@H](CO)NC(=O)CCSSCCNC1=O [S-B3-D2/8]
111.94%	O=C(Cc1c[nH]c2ccccc12)NCCC[C@@H]1NC(=O)c2ccc(cc2)CNC(=O)[C@H](CO)NC(=O)CCSSCCNC1=O [S-B3-D2/12]
119.049%	O=C(COc1ccccc1)NCCC[C@@H]1NC(=O)c2ccc(cc2)CNC(=O)[C@H](CO)NC(=O)CCSSCCNC1=O [S-B3-D2/13]
116.562%	Cc1nnsc1C(=O)NCCC[C@@H]1NC(=O)c2ccc(cc2)CNC(=O)[C@H](CO)NC(=O)CCSSCCNC1=O [S-B3-D2/15]
114.086%	O=C1CCSSCCNC(=O)[C@H](CCCNC(=O)c2ccco2)NC(=O)c2ccc(cc2)CNC(=O)[C@H](CO)N1 [S-B3-D2/16]
119.352%	NCCC[C@@H]1NC(=O)c2ccc(cc2)CNC(=O)[C@H](CO)NC(=O)CCSSCCNC1=O [S-B3-D2/-]
117.639%	O=C1CCSSCCNC(=O)[C@H](CCCCNC(=O)c2c[nH]c(=O)[nH]c2=O)NC(=O)c2cccc(c2)CNC(=O)[C@H](CO)N1 [S-B5-D1/11]
112.778%	O=C1CCSSCCNC(=O)[C@H](CCCCNC(=O)c2ccco2)NC(=O)c2cccc(c2)CNC(=O)[C@H](CO)N1 [S-B5-D1/16]
107.119%	CC(C)[C@@H]1NC(=O)CCSSCCNC(=O)[C@@H]2CCCN2C(=O)[C@H](CCCCNC(=O)c2c[nH]c(=O)cn2)NC1=O [V-D1-B1/9] ([Mpa]VK(Pyrazinoyl(5-oxo-4H))P-Cysteamide; disulfide 1-C)
107.385%	COc1ccc(C(=O)NCCCC[C@@H]2NC(=O)[C@H](C(C)C)NC(=O)CCSSCCNC(=O)[C@@H]3CCCN3C2=O)cn1 [V-D1-B1/10] ([Mpa]VK(Nicotinoyl(6-OMe))P-Cysteamide; disulfide 1-C)
105.267%	CC(C)[C@@H]1NC(=O)CCSSCCNC(=O)[C@@H]2CCCN2C(=O)[C@H](CCCCNC(=O)Cc2c[nH]c3ccccc23)NC1=O [V-D1-B1/12] ([Mpa]VK(X3)P-Cysteamide; disulfide 1-C)
111.167%	CC(C)[C@@H]1NC(=O)CCSSCCNC(=O)[C@@H]2CCCN2C(=O)[C@H](CCCCNC(=O)COc2ccccc2)NC1=O [V-D1-B1/13] ([Mpa]VK(Phenoxyacetyl)P-Cysteamide; disulfide 1-C)
105.594%	CC(C)[C@@H]1NC(=O)CCSSCCNC(=O)[C@@H]2CCCN2C(=O)[C@H](CCCCNC(=O)c2ccc(Cl)s2)NC1=O [V-D1-B1/14] ([Mpa]VK(2Thenoyl(5-Cl))P-Cysteamide; disulfide 1-C)
114.617%	Cc1nnsc1C(=O)NCCCC[C@@H]1NC(=O)[C@H](C(C)C)NC(=O)CCSSCCNC(=O)[C@@H]2CCCN2C1=O [V-D1-B1/15] ([Mpa]VK(1,2,3Thiadiazole5CO(4-Me))P-Cysteamide; disulfide 1-C)
110.34%	CC(C)[C@@H]1NC(=O)CCSSCCNC(=O)[C@@H]2CCCN2C(=O)[C@H](CCCCNC(=O)c2ccco2)NC1=O [V-D1-B1/16] ([Mpa]VK(2Furoyl)P-Cysteamide; disulfide 1-C)
92.2757%	O=C1CCSSCCNC(=O)[C@H](CCCCNC(=O)c2ccccc2)NC(=O)C2(CC2)CNC(=O)[C@H](Cc2c[nH]c3ccccc23)N1 [W-B6-D1/1]
88.7647%	O=C(COc1ccccc1)NCCCC[C@@H]1NC(=O)C2(CC2)CNC(=O)[C@H](Cc2c[nH]c3ccccc23)NC(=O)CCSSCCNC1=O [W-B6-D1/13]
81.7178%	O=C1CCSSCCNC(=O)[C@H](CCCCNC(=O)c2ccc(Cl)s2)NC(=O)C2(CC2)CNC(=O)[C@H](Cc2c[nH]c3ccccc23)N1 [W-B6-D1/14]

From article PMC9250534, “Synthesis and direct assay of large macrocycle diversities by combinatorial late-stage modification at picomole scale” (Nature Communications, 2022)
